# Reference: PubChem BioAssay AID1963959 (Molecular Pharmacology Branch, DTP, NCI, 2024)
# pIC50: −log10 of the molar value.
# System: T-47D spheroids with HUVEC/MSC, viability
# Assay: Anticancer human tumor T-47D cell line growth inhibition [PI3K];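 note: spheroids exposed to agents for seven days before reading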;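 for viability, T/C: percent of DMSO vehicle control luminescence so 100% = untreated growth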
# Settings: for pIC50: curve of first compound; for viability, T/C: stronger effect = lower value
# Text: Combinatorial screen of targeted agents with the PI3K inhibitors inavolisib, alpelisib, duvelisib, and copanlisib in multi-cell type tumor spheroids
# A high-throughput screen of multi-cell type tumor spheroids was designed to identify active combinations of targeted small molecules and PI3K pathway inhibitors. Complex spheroids include a stromal component modeled by human endothelial cells (HUVEC) and fibroblasts modeled by human mesenchymal stem cells (MSCs). The concentration ranges selected for each drug and investigational agent were based upon clinically achievable concentrations if the clinical Cmax of the agent was known.
# Compounds. The drugs and investigational agents: inavolisib (NSC800729), alpelisib (NSC765974), duvelisib (NSC772469), copanlisib (NSC816437), ipatasertib (NSC767898), afuresertib (NSC778305), talazoparib (NSC767125), sapanisertib (NSC764658), selumetinib (NSC741078), tovorafenib (DAY101, NSC766906), vemurafenib (NSC761431), ravoxertinib (NSC781343), sotorasib (NSC818433), MRTX1133 (NSC 836407), abemaciclib (NSC 768073), palbociclib (NSC758247), venetoclax (NSC 766270), SY5609 (NSC837396), enzalutamide (NSC755605), and darolutamide (NSC825331), were obtained from the National Cancer Institute (NCI) Developmental Therapeutics Program Chemical Repository. The FDA-approved anticancer drug set is available from the NCI Developmental Therapeutics Program. […] The stock solutions were prepared in dimethyl sulfoxide (DMSO, Sigma-Aldrich, St. Louis, MO, cat. D2650) at 800-fold the tested concentration and stored at -70 degrees C prior to their use. All drugs and investigational agents were tested over a range starting from a high concentration at or near the clinical Cmax and decreasing in half-log increments. If the clinical Cmax for an agent had not been determined, the highest concentration tested was 10 microM.
# Cell Culture. All cells were maintained in an incubator at 37 degrees C and 5% CO2 with 95% humidity. The PDC lines were cultured according to standard operating procedures established by the NCI PDMR (https://pdmr.cancer.gov/sops/default.htm). All PDCs were thawed and cultured in Matrigel-coated flasks prepared with a working solution of 1X Ham's F-12 nutrient mix, without supplementation (Invitrogen, Waltham, MA, cat. 11765054), 100 U/mL penicillin-streptomycin (Invitrogen, cat. 15140122), and 2.5% Matrigel (Corning Inc., Corning, NY, cat. 354248) for the first three passages. The 354836-022-R-J1-PDC, 475296-252-R-J1-PDC, and 997726-040-R-J2-PDC lines were cultured in 6A media, which includes advanced DMEM/F-12 (Thermo Fisher Scientific, cat. 12634028), 10 mM HEPES (Thermo Fisher Scientific, cat. 15630080), 1X GlutaMAX supplement (Thermo Fisher Scientific, cat. 35050061), 0.1 mg/mL primocin (InvivoGen, San Diego, CA, cat. ant-pm-2), 10% defined fetal bovine serum, heat inactivated (HyClone Laboratories Inc., Logan, UT, cat. SH30070.03HI), 50% L-WRN conditioned media (ATCC, cat. CRL-3276), 1.25 mM N-Acetyl-L-cysteine (Sigma-Aldrich, cat. A9165), 10 mM nicotinamide (Sigma-Aldrich, cat. N0636), 1X B-27 supplement (Thermo Fisher Scientific, cat. 17504044), 1X N-2 supplement (Thermo Fisher Scientific, cat. 17502048), and 10 microM Y-27632 dihydrochloride (Tocris Bioscience, Bristol, United Kingdom, cat. 1254). The 624824-186-R-J2-PDC line was cultured in 6C/Colon 1B media, which includes all 6A media components plus 50 ng/mL human EGF recombinant protein (Thermo Fisher Scientific, cat. PHG0311). […]
# [1] = second compound 0.00316 µM, first compound 0.00316 µM
# [2] = second compound 0.00316 µM, first compound 0.01 µM
# [3] = second compound 0.00316 µM, first compound 0.0316 µM
# [4] = second compound 0.00316 µM, first compound 0.1 µM
# [5] = second compound 0.01 µM, first compound 0.00316 µM
# [6] = second compound 0.01 µM, first compound 0.01 µM
# [7] = second compound 0.01 µM, first compound 0.0316 µM
# [8] = second compound 0.01 µM, first compound 0.1 µM
# [9] = second compound 0.0316 µM, first compound 0.00316 µM
# [10] = second compound 0.0316 µM, first compound 0.01 µM
# [11] = second compound 0.0316 µM, first compound 0.0316 µM
# [12] = second compound 0.0316 µM, first compound 0.1 µM
# [13] = second compound 0.1 µM, first compound 0.00316 µM
# [14] = second compound 0.1 µM, first compound 0.01 µM
# [15] = second compound 0.1 µM, first compound 0.0316 µM
# [16] = second compound 0.1 µM, first compound 0.1 µM
# [17] = second compound 0.316 µM, first compound 0.00316 µM
# [18] = second compound 0.316 µM, first compound 0.01 µM
# [19] = second compound 0.316 µM, first compound 0.0316 µM
# [20] = second compound 0.316 µM, first compound 0.1 µM
# [21] = second compound 1 µM, first compound 0.00316 µM
# [22] = second compound 1 µM, first compound 0.01 µM
# [23] = second compound 1 µM, first compound 0.0316 µM
# [24] = second compound 1 µM, first compound 0.1 µM
compound,measurement,setting,value
CCN1CCN(Cc2ccc(Nc3ncc(F)c(-c4cc(F)c5nc(C)n(C(C)C)c5c4)n3)nc2)CC1 + CC(Nc1ccc2c(c1)OCCn1cc(N3C(=O)OCC3C(F)F)nc1-2)C(N)=O,pIC50,second compound 0.00316 µM,< 6.00
same,pIC50,second compound 0.01 µM,< 6.00
same,pIC50,second compound 0.0316 µM,< 6.00
same,pIC50,second compound 0.1 µM,< 6.00
same,pIC50,second compound 0.316 µM,7.76
same,pIC50,second compound 1 µM,> 8.50
same,"viability, T/C",[1],107%
same,"viability, T/C",[2],101%
same,"viability, T/C",[3],91%
same,"viability, T/C",[4],95.5%
same,"viability, T/C","second compound 0.00316 µM, first compound 0.316 µM",91.6%
same,"viability, T/C","second compound 0.00316 µM, first compound 1 µM",91.2%
same,"viability, T/C",[5],93%
same,"viability, T/C",[6],101%
same,"viability, T/C",[7],94.4%
same,"viability, T/C",[8],86.2%
same,"viability, T/C","second compound 0.01 µM, first compound 0.316 µM",76.5%
same,"viability, T/C","second compound 0.01 µM, first compound 1 µM",82.5%
same,"viability, T/C",[9],88.2%
same,"viability, T/C",[10],98%
same,"viability, T/C",[11],81.8%
same,"viability, T/C",[12],90%
same,"viability, T/C","second compound 0.0316 µM, first compound 0.316 µM",72.6%
same,"viability, T/C","second compound 0.0316 µM, first compound 1 µM",91%
same,"viability, T/C",[13],83.3%
same,"viability, T/C",[14],90.6%
same,"viability, T/C",[15],71.5%
same,"viability, T/C",[16],58.9%
same,"viability, T/C","second compound 0.1 µM, first compound 0.316 µM",56.5%
same,"viability, T/C","second compound 0.1 µM, first compound 1 µM",73.8%
same,"viability, T/C",[17],58.2%
same,"viability, T/C",[18],49.9%
same,"viability, T/C",[19],51.2%
same,"viability, T/C",[20],48.8%
same,"viability, T/C","second compound 0.316 µM, first compound 0.316 µM",47%
same,"viability, T/C","second compound 0.316 µM, first compound 1 µM",49.1%
same,"viability, T/C",[21],49.7%
same,"viability, T/C",[22],36.8%
same,"viability, T/C",[23],35.7%
same,"viability, T/C",[24],32.5%
same,"viability, T/C","second compound 1 µM, first compound 0.316 µM",37.2%
same,"viability, T/C","second compound 1 µM, first compound 1 µM",44.8%
Cn1ncnc1[C@H]1c2n[nH]c(=O)c3cc(F)cc(c23)N[C@@H]1c1ccc(F)cc1 + CC(Nc1ccc2c(c1)OCCn1cc(N3C(=O)OCC3C(F)F)nc1-2)C(N)=O,pIC50,second compound 0.00316 µM,< 7.00
same,pIC50,second compound 0.01 µM,< 7.00
same,pIC50,second compound 0.0316 µM,< 7.00
same,pIC50,second compound 0.1 µM,< 7.00
same,pIC50,second compound 0.316 µM,< 7.00
same,pIC50,second compound 1 µM,< 7.00
same,"viability, T/C","second compound 0.00316 µM, first compound 0.000316 µM",88.8%
same,"viability, T/C","second compound 0.00316 µM, first compound 0.001 µM",82.8%
same,"viability, T/C",[1],109%
same,"viability, T/C",[2],86.9%
same,"viability, T/C",[3],96.3%
same,"viability, T/C",[4],112%
same,"viability, T/C","second compound 0.01 µM, first compound 0.000316 µM",113%
same,"viability, T/C","second compound 0.01 µM, first compound 0.001 µM",78.7%
same,"viability, T/C",[5],80.3%
same,"viability, T/C",[6],96.2%
same,"viability, T/C",[7],91.3%
same,"viability, T/C",[8],89.4%
same,"viability, T/C","second compound 0.0316 µM, first compound 0.000316 µM",108%
same,"viability, T/C","second compound 0.0316 µM, first compound 0.001 µM",74.7%
same,"viability, T/C",[9],88.8%
same,"viability, T/C",[10],85%
same,"viability, T/C",[11],81.2%
same,"viability, T/C",[12],75.8%
same,"viability, T/C","second compound 0.1 µM, first compound 0.000316 µM",79.2%
same,"viability, T/C","second compound 0.1 µM, first compound 0.001 µM",76.7%
same,"viability, T/C",[13],78.3%
same,"viability, T/C",[14],81.6%
same,"viability, T/C",[15],86.5%
same,"viability, T/C",[16],76.2%
same,"viability, T/C","second compound 0.316 µM, first compound 0.000316 µM",77.1%
same,"viability, T/C","second compound 0.316 µM, first compound 0.001 µM",80.1%
same,"viability, T/C",[17],57.1%
same,"viability, T/C",[18],65.6%
same,"viability, T/C",[19],62.3%
same,"viability, T/C",[20],61.9%
same,"viability, T/C","second compound 1 µM, first compound 0.000316 µM",61.5%
same,"viability, T/C","second compound 1 µM, first compound 0.001 µM",48.5%
same,"viability, T/C",[21],54.2%
same,"viability, T/C",[22],58%
same,"viability, T/C",[23],55.2%
same,"viability, T/C",[24],49.8%
